The source made the active and inactive calls. The calls are words filed in the database; no cut-off is given here.
Key:
[1] = system: Porcine epidemic diarrhea virus; experiment: Antiviral activity against PEDV 85-7 infected in Marc145 cells assessed as reduction in PEDV-N protein level at 10 uM by Western blotting analysis; format: functional, organism-based
MARC145 = experiment: Suppression of Hsc70 expression in African green monkey Marc145 cells assessed as Hsc70 mRNA destabilization by measuring half life at 20 uM (reference value: 6.51 hrs); format: functional, cell-based; conditions: Chlorocebus aethiops
[2] = Selectivity index, ratio of CC50 for cytotoxicity against African green monkey MARC145 cells to EC50 for antiviral activity against PEDV 85-7; format: toxicity, cell-based; conditions: read-out: Ratio CC50/EC50
[3] = system: Porcine epidemic diarrhea virus; experiment: Antiviral activity against PEDV 85-7 infected in Marc145 cells assessed as inhibition of viral replication by measuring reduction in mRNA level at 10 uM after 24 hrs by qPCR analysis; format: functional; design: scale not given: the % may be the effect or the level left
[4] = Cytotoxicity against African green monkey MARC145 cells by CCK8 assay; format: cell-based; conditions: chlorocebus aethiops
[5] = system: Porcine epidemic diarrhea virus; experiment: Antiviral activity against PEDV 85-7 infected in Marc145 cells assessed as down regulation of Hsc70 mRNA expression at 10 uM after 24 hrs by qPCR analysis; format: functional, organism-based
[6] = system: Porcine epidemic diarrhea virus; experiment: Antiviral activity against PEDV 85-7 infected in Marc145 cells assessed as inhibition of viral transcription after 24 hrs by qPCR analysis; format: functional, organism-based; conditions: 85-7, MARC145, 24 h
[7] = system: Porcine epidemic diarrhea virus; experiment: Antiviral activity against PEDV 85-7 infected in Marc145 cells assessed as reduction in viral virion at 20 uM by plaque assay; format: functional, organism-based
[8] = system: Porcine epidemic diarrhea virus; experiment: Antiviral activity against PEDV 85-7 infected in Marc145 cells expressing pEGFP-N1/Hsc70 protein assessed as decrease in PEDV-N-protein level at 20 uM after 24 hrs […]; format: functional
[9] = system: Porcine epidemic diarrhea virus; experiment: Antiviral activity against PEDV 85-7 infected in Marc145 cells assessed as reduction in PDEV protein level at 10 uM after 24 hrs by indirect immunofluorescence assay; format: functional, organism-based
[10] = system: Porcine epidemic diarrhea virus; experiment: Antiviral activity against PEDV (NK-2) inoculated in piglets assessed as reduction in fusion of numerous villi at 50 mg/kg, po administered every 24 hrs for 72 hrs by HE staining based microscopic analysis; format: functional, organism-based
[11] = system: Porcine epidemic diarrhea virus; experiment: Antiviral activity against PEDV (NK-2) inoculated in piglets assessed as reduction in multifocal diffusion of villous atrophy at 50 mg/kg, po administered every 24 hrs for 72 hrs by HE staining based microscopic analysis; format: functional, organism-based
[12] = system: Porcine epidemic diarrhea virus; experiment: Antiviral activity against PEDV (NK-2) inoculated in piglets assessed as reduction in mortality at 50 mg/kg, po administered every 24 hrs for 72 hrs; format: functional, organism-based
[13] = system: Porcine epidemic diarrhea virus; experiment: Antiviral activity against PEDV 85-7 infected in Marc145 cells assessed as reduction in PEDV-N protein level by Western blotting analysis; format: functional, organism-based; conditions: dose 0.1-10 µM
[14] = system: Porcine epidemic diarrhea virus; experiment: Antiviral activity against PEDV 85-7 infected in Marc145 cells assessed as suppression of viral assembly; format: functional, organism-based
[15] = system: Porcine epidemic diarrhea virus; experiment: Antiviral activity against PEDV (NK-2) inoculated in piglets assessed as reduction in swelling sloughing and attenuation of villi at 50 mg/kg, po administered every 24 hrs for 72 hrs by HE staining based microscopic analysis; format: functional, organism-based
[16] = system: Porcine epidemic diarrhea virus; experiment: Antiviral activity against PEDV 85-7 infected in Marc145 cells expressing pEGFP-N1/Hsc70 protein assessed as decrease in viral RNA level at 20 uM after 24 hrs by qPCR analysis; format: functional
[17] = system: Porcine epidemic diarrhea virus; experiment: Antiviral activity against PEDV (NK-2) inoculated in piglets assessed as reduction in viral replication in intestine at 50 mg/kg, po administered every 24 hrs for 72 hrs by immunofluorescence assay; format: functional, organism-based
[18] = system: Porcine epidemic diarrhea virus; experiment: Antiviral activity against PEDV 85-7 infected in Marc145 cells assessed as down regulation of Hsc70 protein expression after 24 hrs by Western blotting analysis; format: functional, organism-based; conditions: dose 0.1-10 µM

Row | Structure (SMILES) | Activity [1] | T1/2 (MARC145) [h] | selectivity ratio [2] | Activity [3] [%] | CC50 [4] [µM] | Activity [5] | EC50 [6] [µM] | Activity [7] | fold change (FC) [8] | Activity [9] | Activity [10] | Activity [11] | Activity [12] | Activity [13] | Activity [14] | Activity [15] | fold change (FC) [16] | Activity [17] | Activity [18]
1 | CCc1cccc2c1N(C)Cc1cc(OC(C)=O)c(OC(C)=O)cc1-2 | Active | 2.61 | > 30 | 70 | > 100 | Active | 3.26 | – | – | – | – | – | – | – | – | – | – | – | –
2 | CCc1cccc2c1N(C)Cc1cc(OCc3cc(C)n(C)n3)c(OCc3cc(C)n(C)n3)cc1-2 | Active | 1.84 | > 134 | 70 | > 100 | Active | 0.72 | Active | 20.5 | Active | Active | Active | Active | Dose-Dependent Effect | Active | Active | 29.3 | Active | Dose-Dependent Effect
3 | CCc1cccc2c1N(C)Cc1cc(OC)c(OC)cc1-2 | Active | 2.31 | > 53 | 70 | > 100 | Active | 1.89 | Active | – | Active | Active | Active | Active | – | – | Active | – | Active | –

— ChEMBL document CHEMBL4811237, “Phenanthridine Derivative Host Heat Shock Cognate 70 Down-Regulators as Porcine Epidemic Diarrhea Virus Inhibitors” (J Nat Prod, 2021)
